#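 GI50: concentration for 50% inhibition of growth. TGI marks complete inhibition of growth.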
# Tests used:
# Assay in all cases: NCI anticancer screen, dose series, 384-well format
# 786-0 renal = test system: 786-0 renal
# A498 renal = test system: A498 renal
# A549 NSCLC = test system: A549 NSCLC
# ACHN renal = test system: ACHN renal
# BT-549 breast = test system: BT-549 breast
# CAKI-1 renal = test system: CAKI-1 renal
# CCRF-CEM leukemia = test system: CCRF-CEM leukemia
# COLO 205 colon = test system: COLO 205 colon
# DU-145 prostate = test system: DU-145 prostate
# EKVX NSCLC = test system: EKVX NSCLC
# HCC-2998 colon = test system: HCC-2998 colon
# HCT-116 colon = test system: HCT-116 colon
# HCT-15 colon = test system: HCT-15 colon
# HL-60(TB) leukemia = test system: HL-60(TB) leukemia
# HOP-62 NSCLC = test system: HOP-62 NSCLC
# HOP-92 NSCLC = test system: HOP-92 NSCLC
# HS 578T breast = test system: HS 578T breast
# HT29 colon = test system: HT29 colon
# IGROV1 ovarian = test system: IGROV1 ovarian
# K-562 leukemia = test system: K-562 leukemia
# KM12 colon = test system: KM12 colon
# LOX IMVI melanoma = test system: LOX IMVI melanoma
# M14 melanoma = test system: M14 melanoma
# MALME-3M melanoma = test system: MALME-3M melanoma
# MCF7 breast = test system: MCF7 breast
# MDA-MB-231 breast = test system: MDA-MB-231 breast
# MDA-MB-435 melanoma = test system: MDA-MB-435 melanoma
# MDA-MB-468 breast = test system: MDA-MB-468 breast
# MOLT-4 leukemia = test system: MOLT-4 leukemia
# NCI-H226 lung = test system: NCI-H226 lung
# NCI-H23 lung = test system: NCI-H23 lung
# NCI-H322M lung = test system: NCI-H322M lung
# NCI-H460 NSCLC = test system: NCI-H460 NSCLC
# NCI-H522 lung = test system: NCI-H522 lung
# NCI/ADR-RES ovarian = test system: NCI/ADR-RES ovarian
# OVCAR-3 ovarian = test system: OVCAR-3 ovarian
# OVCAR-4 ovarian = test system: OVCAR-4 ovarian
# OVCAR-5 ovarian = test system: OVCAR-5 ovarian
# OVCAR-8 ovarian = test system: OVCAR-8 ovarian
# PC-3 prostate = test system: PC-3 prostate
# RPMI-8226 leukemia = test system: RPMI-8226 leukemia
# RXF 393 renal = test system: RXF 393 renal
# SF-268 CNS = test system: SF-268 CNS
# SF-295 CNS = test system: SF-295 CNS
# SF-539 CNS = test system: SF-539 CNS
# SK-MEL-28 melanoma = test system: SK-MEL-28 melanoma
# SK-MEL-5 melanoma = test system: SK-MEL-5 melanoma
# SK-OV-3 ovarian = test system: SK-OV-3 ovarian
# SN12C renal = test system: SN12C renal
# SNB-19 CNS = test system: SNB-19 CNS
# SNB-75 CNS = test system: SNB-75 CNS
# SW-620 colon = test system: SW-620 colon
# T-47D breast = test system: T-47D breast
# TK-10 renal = test system: TK-10 renal
# U251 glioblastoma = test system: U251 glioblastoma
# UACC-257 melanoma = test system: UACC-257 melanoma
# UACC-62 melanoma = test system: UACC-62 melanoma
# UO-31 renal = test system: UO-31 renal
smiles,measurement,setting,value
CC[C@H](C)n1cc(C)c2c(C(=O)NCc3c(C)cc(C)[nH]c3=O)cc(-c3ccc(N4CCNCC4)nc3)cc21,GI50,786-0 renal,1710 nM
same,TGI,786-0 renal,3100 nM
same,GI50,A498 renal,1940 nM
same,TGI,A498 renal,3430 nM
same,GI50,A549 NSCLC,1960 nM
same,TGI,A549 NSCLC,3920 nM
same,GI50,ACHN renal,4230 nM
same,TGI,ACHN renal,15600 nM
same,GI50,BT-549 breast,1670 nM
same,TGI,BT-549 breast,3050 nM
same,GI50,CAKI-1 renal,1760 nM
same,TGI,CAKI-1 renal,3170 nM
same,GI50,CCRF-CEM leukemia,1530 nM
same,TGI,CCRF-CEM leukemia,2870 nM
same,GI50,COLO 205 colon,1710 nM
same,TGI,COLO 205 colon,3100 nM
same,GI50,DU-145 prostate,3830 nM
same,TGI,DU-145 prostate,12100 nM
same,GI50,EKVX NSCLC,1830 nM
same,TGI,EKVX NSCLC,3490 nM
same,GI50,HCC-2998 colon,1600 nM
same,TGI,HCC-2998 colon,2980 nM
same,GI50,HCT-116 colon,1790 nM
same,TGI,HCT-116 colon,3230 nM
same,GI50,HCT-15 colon,1860 nM
same,TGI,HCT-15 colon,3480 nM
same,GI50,HL-60(TB) leukemia,2030 nM
same,TGI,HL-60(TB) leukemia,3470 nM
same,GI50,HOP-62 NSCLC,1640 nM
same,TGI,HOP-62 NSCLC,3020 nM
same,GI50,HOP-92 NSCLC,1830 nM
same,TGI,HOP-92 NSCLC,3250 nM
same,GI50,HS 578T breast,1410 nM
same,TGI,HS 578T breast,2710 nM
same,GI50,HT29 colon,1680 nM
same,TGI,HT29 colon,3110 nM
same,GI50,IGROV1 ovarian,1540 nM
same,TGI,IGROV1 ovarian,3670 nM
same,GI50,K-562 leukemia,1480 nM
same,TGI,K-562 leukemia,2810 nM
same,GI50,KM12 colon,1790 nM
same,TGI,KM12 colon,3320 nM
same,GI50,LOX IMVI melanoma,1640 nM
same,TGI,LOX IMVI melanoma,3020 nM
same,GI50,M14 melanoma,1750 nM
same,TGI,M14 melanoma,3140 nM
same,GI50,MALME-3M melanoma,1610 nM
same,TGI,MALME-3M melanoma,2970 nM
same,GI50,MCF7 breast,1520 nM
same,TGI,MCF7 breast,2890 nM
same,GI50,MDA-MB-231 breast,1650 nM
same,TGI,MDA-MB-231 breast,3060 nM
same,GI50,MDA-MB-435 melanoma,2070 nM
same,TGI,MDA-MB-435 melanoma,3520 nM
same,GI50,MDA-MB-468 breast,1460 nM
same,TGI,MDA-MB-468 breast,2790 nM
same,GI50,MOLT-4 leukemia,1630 nM
same,TGI,MOLT-4 leukemia,2990 nM
same,GI50,NCI-H226 lung,3760 nM
same,TGI,NCI-H226 lung,14500 nM
same,GI50,NCI-H23 lung,2890 nM
same,TGI,NCI-H23 lung,7440 nM
same,GI50,NCI-H322M lung,1960 nM
same,TGI,NCI-H322M lung,4070 nM
same,GI50,NCI-H460 NSCLC,1830 nM
same,TGI,NCI-H460 NSCLC,3240 nM
same,GI50,NCI-H522 lung,1860 nM
same,TGI,NCI-H522 lung,3270 nM
same,GI50,NCI/ADR-RES ovarian,17700 nM
same,TGI,NCI/ADR-RES ovarian,31600 nM
same,GI50,OVCAR-3 ovarian,2250 nM
same,TGI,OVCAR-3 ovarian,4390 nM
same,GI50,OVCAR-4 ovarian,3580 nM
same,TGI,OVCAR-4 ovarian,10800 nM
same,GI50,OVCAR-5 ovarian,2620 nM
same,TGI,OVCAR-5 ovarian,6440 nM
same,GI50,OVCAR-8 ovarian,1810 nM
same,TGI,OVCAR-8 ovarian,3340 nM
same,GI50,PC-3 prostate,3230 nM
same,TGI,PC-3 prostate,8540 nM
same,GI50,RPMI-8226 leukemia,1390 nM
same,TGI,RPMI-8226 leukemia,2700 nM
same,GI50,RXF 393 renal,1730 nM
same,TGI,RXF 393 renal,3140 nM
same,GI50,SF-268 CNS,1620 nM
same,TGI,SF-268 CNS,2980 nM
same,GI50,SF-295 CNS,1870 nM
same,TGI,SF-295 CNS,3320 nM
same,GI50,SF-539 CNS,1600 nM
same,TGI,SF-539 CNS,2960 nM
same,GI50,SK-MEL-28 melanoma,2150 nM
same,TGI,SK-MEL-28 melanoma,3600 nM
same,GI50,SK-MEL-5 melanoma,1630 nM
same,TGI,SK-MEL-5 melanoma,2990 nM
same,GI50,SK-OV-3 ovarian,1860 nM
same,TGI,SK-OV-3 ovarian,3300 nM
same,GI50,SN12C renal,1780 nM
same,TGI,SN12C renal,3490 nM
same,GI50,SNB-19 CNS,2110 nM
same,TGI,SNB-19 CNS,3750 nM
same,GI50,SNB-75 CNS,1350 nM
same,TGI,SNB-75 CNS,2650 nM
same,GI50,SW-620 colon,1740 nM
same,TGI,SW-620 colon,3120 nM
same,GI50,T-47D breast,1470 nM
same,TGI,T-47D breast,2820 nM
same,GI50,TK-10 renal,1910 nM
same,TGI,TK-10 renal,3640 nM
same,GI50,U251 glioblastoma,1830 nM
same,TGI,U251 glioblastoma,3250 nM
same,GI50,UACC-257 melanoma,1630 nM
same,TGI,UACC-257 melanoma,2990 nM
same,GI50,UACC-62 melanoma,1570 nM
same,TGI,UACC-62 melanoma,2920 nM
same,GI50,UO-31 renal,13100 nM
same,TGI,UO-31 renal,25800 nM

# From PubChem BioAssay (NCI)
